In the supplement of paper PMC11208160:

Test: recombinant UMI read abundance after kanamycin selection (control-corrected) (log10(CPM+1)); higher = more efficient recombination; extreme values may be limits of the assay; sequences stand for … in AGTGCAGAGAAAATCGGCCAGTTTTCTCTGCCTGCAGTCCGCATGCCGTGGGACCCCTTGGGTTCTAACCTGTTGCCTAGATTTATGCAGCGGACTGCCTTTCTCCCAAAGTGATAAACCGG…AGGTTGGTTTCACT; site = the 11-nt donor
How it was run: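 Sequenced counts of recombinant UMIs were turned into CPM, averaged across replicates and scaled with control-derived factors. The reported figure is log10(CPM+1). Those UMIs, each 12 nt long, tagged donor and donor-binding-loop pairs on a plasmid with a promoterless kanamycin gene, screened as a pool in Escherichia coli with IPTG (0.07 mM) plus kanamycin or without selection.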
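Further: IS621 bridge recombinase in Escherichia coli cells against a fixed T5 target plasmid.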

Sequence	recombinant UMI read abundance (log10)
GCATGCCCATGGACCGGTTTTCCCGGTAATCCGTATTTGAT (site GCATGCCCTAT)	0.197
GCATGCCCATGGACCGGTTTTCCCGGTAATCCGTATTTGAT (site GCCTGCCCTAT)	0.226
GCATGCCCATGGACCGGTTTTCCCGGTAATCCGTATTTGAT (site GCGTGCCCTAT)	0.0164
GCATGCCCATGGACCGGTTTTCCCGGTAATCCGTATTTGAT (site GCTTGCCCTAT)	0.0139
GCATGGCCATGGACCGGTTTTCCCGGTAATCCGTATTTGCA (site GAATGGCCTTG)	0
GCATGGCCATGGACCGGTTTTCCCGGTAATCCGTATTTGCA (site GCATGGCCTTG)	0
GCATGGCCATGGACCGGTTTTCCCGGTAATCCGTATTTGCA (site GGATGGCCTTG)	0.0185
GCATGGCCATGGACCGGTTTTCCCGGTAATCCGTATTTGCA (site GTATGGCCTTG)	0.0194
GCATTACCATGGACCGGTTTTCCCGGTAATCCGTATTTGTC (site GCATTACCTGA)	0
GCCAACGCATGGACCGGTTTTCCCGGTAATCCGTATTTGAA (site GCCAACGCTTT)	1.63
GCCAAGGCATGGACCGGTTTTCCCGGTAATCCGTATTTGAG (site GCCAAGGCTCT)	1.49
GCCACGCCATGGACCGGTTTTCCCGGTAATCCGTATTTGAA (site GCCACGCCTTA)	0.00688
GCCACGCCATGGACCGGTTTTCCCGGTAATCCGTATTTGAA (site GCCACGCCTTC)	0.0229
GCCACGCCATGGACCGGTTTTCCCGGTAATCCGTATTTGAA (site GCCACGCCTTG)	0
GCCACGCCATGGACCGGTTTTCCCGGTAATCCGTATTTGAA (site GCCACGCCTTT)	0.0176
GCCACGCCATGGACCGGTTTTCCCGGTAATCCGTATTTGCA (site GCCACGCCTTA)	0
GCCACGCCATGGACCGGTTTTCCCGGTAATCCGTATTTGCA (site GCCACGCCTTC)	0.0237
GCCACGCCATGGACCGGTTTTCCCGGTAATCCGTATTTGCA (site GCCACGCCTTG)	1.36
GCCACGCCATGGACCGGTTTTCCCGGTAATCCGTATTTGCA (site GCCACGCCTTT)	0.0202
GCCACGCCATGGACCGGTTTTCCCGGTAATCCGTATTTGGA (site GCCACGCCTTA)	0.00593
GCCACGCCATGGACCGGTTTTCCCGGTAATCCGTATTTGGA (site GCCACGCCTTC)	0.0144
GCCACGCCATGGACCGGTTTTCCCGGTAATCCGTATTTGGA (site GCCACGCCTTG)	0
GCCACGCCATGGACCGGTTTTCCCGGTAATCCGTATTTGGA (site GCCACGCCTTT)	0.00923
GCCACGCCATGGACCGGTTTTCCCGGTAATCCGTATTTGTC (site GCCACGCCTAA)	0
GCCACGCCATGGACCGGTTTTCCCGGTAATCCGTATTTGTC (site GCCACGCCTCA)	0.015

Sequence	recombinant UMI read abundance (log10)
GCCACGCCATGGACCGGTTTTCCCGGTAATCCGTATTTGTC (site GCCACGCCTGA)	1.03
GCCACGCCATGGACCGGTTTTCCCGGTAATCCGTATTTGTC (site GCCACGCCTTA)	0.0128
GCCACGCCATGGACCGGTTTTCCCGGTAATCCGTATTTGTG (site GCCACGCCTAA)	0.0114
GCCACGCCATGGACCGGTTTTCCCGGTAATCCGTATTTGTG (site GCCACGCCTCA)	0.0225
GCCACGCCATGGACCGGTTTTCCCGGTAATCCGTATTTGTG (site GCCACGCCTGA)	0
GCCACGCCATGGACCGGTTTTCCCGGTAATCCGTATTTGTG (site GCCACGCCTTA)	0.0106
GCCACGTCATGGACCGGTTTTCCCGGTAATCCGTATTTGCA (site GCCACGTCTTG)	2.76
GCCCACACATGGACCGGTTTTCCCGGTAATCCGTATTTGTA (site ACCCACACTTA)	1.08
GCCCACACATGGACCGGTTTTCCCGGTAATCCGTATTTGTA (site CCCCACACTTA)	1.37
GCCCACACATGGACCGGTTTTCCCGGTAATCCGTATTTGTA (site GCCCACACTTA)	1.78
GCCCACACATGGACCGGTTTTCCCGGTAATCCGTATTTGTA (site TCCCACACTTA)	1.02
GCCCACCCATGGACCGGTTTTCCCGGTAATCCGTATTTGTT (site GACCACCCTAA)	0.0217
GCCCACCCATGGACCGGTTTTCCCGGTAATCCGTATTTGTT (site GCCCACCCTAA)	0.051
GCCCACCCATGGACCGGTTTTCCCGGTAATCCGTATTTGTT (site GGCCACCCTAA)	0.0315
GCCCACCCATGGACCGGTTTTCCCGGTAATCCGTATTTGTT (site GTCCACCCTAA)	0.0135
GCCCACGCATGGACCGGTTTTCCCGGTAATCCGTATTTGGA (site GCCCACGCTTC)	0.94
GCCCGAGCATGGACCGGTTTTCCCGGTAATCCGTATTTGGA (site GCCCGAGCTTC)	0.73
GCCCGCACATGGACCGGTTTTCCCGGTAATCCGTATTTGTG (site GCCCGCACTCA)	0.0672
GCCCGCTCATGGACCGGTTTTCCCGGTAATCCGTATTTGAG (site GCCCGCTCTCT)	0.704
GCCCGTTCATGGACCGGTTTTCCCGGTAATCCGTATTTGAG (site GCCCGTTCTCT)	2.23
GCCCTCCCATGGACCGGTTTTCCCGGTAATCCGTATTTGTG (site GCCCTCCCTCA)	0.0428
GCCCTTTCATGGACCGGTTTTCCCGGTAATCCGTATTTGCT (site GCCCTTTCTAG)	1.67
GCCGAACCATGGACCGGTTTTCCCGGTAATCCGTATTTGGG (site GCCGAACCTCC)	0.0289
GCCGATGCATGGACCGGTTTTCCCGGTAATCCGTATTTGGC (site GCCGATGCTGC)	0.846
GCCGCGCCATGGACCGGTTTTCCCGGTAATCCGTATTTGTA (site GCCACGCCTTA)	0.00924

Sequence	recombinant UMI read abundance (log10)
GCCGCGCCATGGACCGGTTTTCCCGGTAATCCGTATTTGTA (site GCCCCGCCTTA)	0.00531
GCCGCGCCATGGACCGGTTTTCCCGGTAATCCGTATTTGTA (site GCCGCGCCTTA)	0.234
GCCGCGCCATGGACCGGTTTTCCCGGTAATCCGTATTTGTA (site GCCTCGCCTTA)	0.18
GCCGCTCCATGGACCGGTTTTCCCGGTAATCCGTATTTGGT (site GCCGCTCCTAC)	0.0147
GCCGGTCCATGGACCGGTTTTCCCGGTAATCCGTATTTGCA (site ACCGGTCCTTG)	0
GCCGGTCCATGGACCGGTTTTCCCGGTAATCCGTATTTGCA (site CCCGGTCCTTG)	0
GCCGGTCCATGGACCGGTTTTCCCGGTAATCCGTATTTGCA (site GCCGGTCCTTG)	0
GCCGGTCCATGGACCGGTTTTCCCGGTAATCCGTATTTGCA (site TCCGGTCCTTG)	0
GCCGTATCATGGACCGGTTTTCCCGGTAATCCGTATTTGCA (site ACAGTATCTTG)	2.87
GCCGTATCATGGACCGGTTTTCCCGGTAATCCGTATTTGCA (site GCCGTATCTTG)	2.22
GCCTAAACATGGACCGGTTTTCCCGGTAATCCGTATTTGGT (site GCCTAAACTAC)	1.07
GCCTAATCATGGACCGGTTTTCCCGGTAATCCGTATTTGGC (site GCCTAATCTGC)	0.963
GCCTATCCATGGACCGGTTTTCCCGGTAATCCGTATTTGAC (site GCCTATCCTGT)	0
GCCTCGCCATGGACCGGTTTTCCCGGTAATCCGTATTTGGT (site GCCTCGCCTAC)	0
GCCTCTACATGGACCGGTTTTCCCGGTAATCCGTATTTGCC (site GCCTCTACTGG)	1.37
GCCTGGCCATGGACCGGTTTTCCCGGTAATCCGTATTTGCT (site GCCTGGCCTAG)	0
GCCTGTGCATGGACCGGTTTTCCCGGTAATCCGTATTTGAC (site GCCTGTGCTGT)	0.472
GCGAAAACATGGACCGGTTTTCCCGGTAATCCGTATTTGCA (site GCGAAAACTAG)	0
GCGAAAACATGGACCGGTTTTCCCGGTAATCCGTATTTGCA (site GCGAAAACTCG)	1.4
GCGAAAACATGGACCGGTTTTCCCGGTAATCCGTATTTGCA (site GCGAAAACTGG)	0
GCGAAAACATGGACCGGTTTTCCCGGTAATCCGTATTTGCA (site GCGAAAACTTG)	0.929
GCGAAATCATGGACCGGTTTTCCCGGTAATCCGTATTTGCT (site GCGAAAACTAG)	0
GCGAAATCATGGACCGGTTTTCCCGGTAATCCGTATTTGCT (site GCGAAACCTAG)	0
GCGAAATCATGGACCGGTTTTCCCGGTAATCCGTATTTGCT (site GCGAAAGCTAG)	0
GCGAAATCATGGACCGGTTTTCCCGGTAATCCGTATTTGCT (site GCGAAATCTAG)	1.62
